Laboratory results: US9895387B2, “Compositions for treating Helicobacter pylori infection” (OVER S.R.L., priority 2010, dated 2018)
Converted amounts (≈) assume the structure as drawn. Read-outs that look alike come from different tables or passages of the source.

Assays:
Format in all cases: cell-based, Helicobacter pylori
[1] = test system: H. pylori strain CCUG 17874 (CagA+); assay: Minimal bactericidal concentration (MBC), broth dilution with subculture on agar
[2] = test system: H. pylori strain Di Simpli (CagA+); assay: as above; conditions: substance alone
[3] = test system: H. pylori strain 4 Kb (CagA+); assay: as above; conditions: substance alone
[4] = test system: H. pylori strain 328 (CagA+); assay: as above; conditions: substance alone
[5] = test system: H. pylori strain G50 (CagA−); assay: as above; conditions: substance alone
[6] = test system: H. pylori strain G21 (CagA−); assay: as above; conditions: substance alone
[7] = test system: H. pylori strain M/C-R1 (CagA+, resistant to met and clar); assay: as above; conditions: substance alone
[8] = test system: H. pylori strain M/C-R2 (CagA+, resistant to met and clar); assay: as above; conditions: substance alone
[9] = test system: H. pylori strain 10K (CagA+); assay: as above; conditions: substance alone
[10] = test system: H. pylori strain 328 Km (isogenic mutant CagA−); conditions: substance alone
[11] = Helicobacter pylori, CCUG17874, substance alone, read-out: MBC
[12] = Helicobacter pylori, read-out: MBC

Row | Molecule | MBC [1, 11] [µg/mL] | MBC [2, 12] [µg/mL] | MBC [4, 12] [µg/mL] | MBC [5, 12] [µg/mL] | MBC [7, 12] [µg/mL] | MBC [8, 12] [µg/mL] | MBC [9, 12] [µg/mL] | other results
1 | CC[C@H]1OC(=O)[C@H](C)[C@@H](O[C@H]2C[C@@](C)(OC)[C@@H](O)[C@H](C)O2)[C@H](C)[C@@H](O[C@@H]2O[C@H](C)C[C@H](N(C)C)[C@H]2O)[C@](C)(OC)C[C@@H](C)C(=O)[C@H](C)[C@@H](O)[C@]1(C)O [clarithromycin] | 0.25 (≈ 0.334 µM) | 0.4 (≈ 0.535 µM) | 0.2 (≈ 0.267 µM) | 0.2 (≈ 0.267 µM) | 320 (≈ 428 µM) | 2500 (≈ 3340 µM) |  | MBC [3, 12]: 0.1 µg/mL (≈ 0.134 µM); MBC [6, 12]: 0.2 µg/mL (≈ 0.267 µM)
2 | C[C@H]1COc2c(N3CCN(C)CC3)c(F)cc3c(=O)c(C(=O)O)cn1c23 [levofloxacin] |  |  |  | 0.16 (≈ 0.443 µM) |  |  | 0.31 (≈ 0.858 µM) | 
3 | polyoxyethylene (20) sorbitan monooleate [polysorbate 80] |  |  |  |  |  |  |  | MBC ([1]; substance alone): 5.0 µg/mL; MBC [2]: 25 µg/mL; MBC [3]: 31 µg/mL; MBC [10]: 62 µg/mL; MBC [4]: 31 to 62 µg/mL; MBC ([4]; listed as polysorbate): 62 µg/mL; MBC [5]: 4.0 µg/mL; MBC ([5]; listed as polysorbate): 4 µg/mL; MBC [6]: 1.6 µg/mL; MBC [7]: 160 µg/mL; MBC [9]: 6.2 µg/mL; MBC [8]: 62 µg/mL
4 | Cc1ncc([N+](=O)[O-])n1CCO [metronidazole] | 3.1 (≈ 18.1 µM) | 10 (≈ 58.4 µM) | 16 (≈ 93.5 µM) |  | 40 (≈ 234 µM) | 320 (≈ 1870 µM) |  | 
5 | CC1(C)S[C@@H]2[C@H](NC(=O)[C@H](N)c3ccc(O)cc3)C(=O)N2[C@H]1C(=O)O [amoxicillin] |  |  |  | 0.04 (≈ 0.109 µM) |  |  | 0.08 (≈ 0.219 µM) | 
